# Test results reported in patent publication US10174202B2, “Dyes with phosphinic acid, phosphinate, phosphonate and phosphonamidate substituents as auxochromic groups and methods for preparing the same” (Max-Planck-Gesellschaft zur Foerderung der Wissenschaften …, priority 2017, dated 2019).
# “And” between values parts separate entries of the source, which are not always exact repeats. Equal values may be shown once. Where a name gives a salt, the structure may show the parent alone. Marks after values point to notes of the source that are not given here.
# How the values were obtained:
# Assay type in all cases: physicochemical
# Fluorescence lifetime = assay: Fluorescence lifetime
# [1] = Absorption spectroscopy (UV/Vis)
# Description: (§1) Absorption spectra were recorded with a Varian Cary 4000 UV-Vis double-beam spectrophotometer (Agilent Technologies, USA). For the determination of the absorption spectra, quartz cells with a 1 cm path length were used. Emission spectra and fluorescence quantum yield were obtained on a Quantaurus-QY Absolute PL quantum yield spectrometer C11347 (Hamamatsu Photonics, Japan) or on a Varian Cary Eclipse fluorescence spectrometer (Agilent Technologies, USA).
# [2] = Emission spectra and fluorescence quantum yield
# Description: as §1
# [3] = in acetonitrile, trifluoroacetate
# [4] = in aq. PBS, pH 7.4, trifluoroacetate
Compound,Absorption max. ([1]; in acetonitrile),ε at absorption max. ([1]; in acetonitrile),"Absorption max. ([1]; in aq. PBS, pH 7.4)","ε at absorption max. ([1]; in aq. PBS, pH 7.4)",Stokes shift ([2]; in acetonitrile),"Emission max. ([2]; in aq. PBS, pH 7.4)","QY (fluorescence quantum yield, Φfl) ([2]; in aq. PBS, pH 7.4)","Stokes shift ([2]; in aq. PBS, pH 7.4)",Emission max. ([2]; in acetonitrile),"QY (fluorescence quantum yield, Φfl) ([2]; in acetonitrile)",also measured
"CC[N+](CC)=c1ccc2c(P(=O)(OC)OC)c3c(oc-2c1)-c1ccc(N(C)C)cc1CC3.O=C([O-])C(F)(F)F [Compound 20, 10-(Diethylamino)-7-(dimethoxyphosphoryl)-3-(dimethylamino)-6,7-dihydro-5H-benzo[c]xanthenylium trifluoroacetate]",681 nm,40000 M⁻¹ cm⁻¹,693 nm,29000 M⁻¹ cm⁻¹,56 nm,754 nm,0.02,61 nm,–,–,"fluorescence lifetime (Fluorescence lifetime; in acetonitrile): 1.50 ns; Emission max. [2, 3]: 737 nm and 754 nm"
"CC(C)OP(=O)(OC(C)C)c1c2ccc(N(C)C)cc2[o+]c2cc(N(C)C)ccc12.O=C([O-])C(F)(F)F [Compound 6, 9-(Diisopropoxyphosphoryl)-3,6-bis(dimethylamino)-9H-xanthenylium trifluoroacetate]",617 nm,–,629 nm,–,32 nm,668 nm,0.12,39 nm,649 nm,0.38,"ε at absorption max. [1, 3]: 57638 M⁻¹ cm⁻¹ and 57600 M⁻¹ cm⁻¹; ε at absorption max. [1, 4]: 52254 M⁻¹ cm⁻¹ and 52300 M⁻¹ cm⁻¹"
"COP(=O)(OC)c1c2ccc(N(C)C)cc2[n+](C)c2cc(N(C)C)ccc12 [Compound 22, 9-(Dimethoxyphosphoryl)-3,6-bis(dimethylamino)-10-methylacridinium trifluoroacetate]",–,–,–,–,–,–,–,–,–,–,"Absorption max. ([1]; in methanol): 560 nm; ε at absorption max. ([1]; in methanol): 43000 M⁻¹ cm⁻¹; Emission max. ([2]; in methanol): 620 nm; QY (fluorescence quantum yield, Φfl) ([2]; in methanol): 0.95; Stokes shift ([2]; in methanol): 60^e nm"
"CCN(CC)c1ccc2c(P(=O)(OC)OC)c(-c3nc4ccccc4s3)c(=O)oc2c1 [Compound 1, Dimethyl [3-(benzo[d]thiazol-2-yl)-7-(diethylamino)-2-oxo-2H-chromen-4-yl]phosphonate]",439 nm,24000 M⁻¹ cm⁻¹,–,–,212^a nm,–,–,–,651 nm,0.20,fluorescence lifetime (Fluorescence lifetime; in acetonitrile): 2.55^a ns
"COP(=O)([O-])C1=c2cc3c4c(c2Oc2c1cc1c5c2CCCN5CCC1)CCC[N+]=4CCC3 [Compound 18, Methyl (1H,2H,3H,5H,6H,7H,11H,12H,13H,15H,16H,17H-pyrido[3,2,1-ij]quinolizino[1′,9′:6,7,8]chromeno[2,3-f]quinolinium-9-yl)phosphonate]",596 nm,49565 M⁻¹ cm⁻¹ and 49600 M⁻¹ cm⁻¹,630 nm,52286 M⁻¹ cm⁻¹ and 52300 M⁻¹ cm⁻¹,27 nm,666 nm,0.17,36 nm,623 nm,0.85,–
CN(C)c1ccc2c(c1)-c1cccc3c(N(C)C)ccc(c13)C2.[O-][Cl+3]([O-])([O-])O [Compound 28d],–,–,–,–,–,–,–,–,–,–,"Absorption max. ([1]; in methanol): 646 nm; ε at absorption max. ([1]; in methanol): 23000 M⁻¹ cm⁻¹; Emission max. ([2]; in methanol): 673 nm; QY (fluorescence quantum yield, Φfl) ([2]; in methanol): 0.25"
"CCN(CC)c1ccc2c(P(=O)(O)O)c(-c3nc4ccccc4s3)c(=O)oc2c1 [Compound 4, [3-(Benzo[d]thiazol-2-yl)-7-(diethylamino)-2-oxo-2H-chromen-4-yl]phosphonic acid]",–,–,419 nm,22000 M⁻¹ cm⁻¹,–,613 nm,0.04,194^b nm,613 nm,0.04,fluorescence lifetime (Fluorescence lifetime; in acetonitrile): 2.91 ns; fluorescence lifetime (Fluorescence lifetime; in methanol + 1% v/v trifluoroacetic acid): 1.85 ns and 0.93 ns
"COP(=O)(c1c2ccc(N(C)C)cc2[o+]c2cc(N(C)C)ccc12)N(C(C)C)C(C)C.O=C([O-])C(F)(F)F (centres unmarked) [Compound 7, 9-[(Diisopropylamino)(methoxy)phosphoryl]-3,6-bis(dimethylamino)-9H-xanthenylium trifluoroacetate]",616 nm,–,628 nm,–,33 nm,664 nm,0.11,36 nm,649 nm,0.39,"ε at absorption max. [1, 3]: 52455 M⁻¹ cm⁻¹ and 52500 M⁻¹ cm⁻¹; ε at absorption max. [1, 4]: 46051 M⁻¹ cm⁻¹ and 46100 M⁻¹ cm⁻¹"
"CN(C)c1ccc2c([PH](=O)[O-])c3ccc(N(C)C)cc3[o+]c2c1 [Compound 13, [3,6-Bis(dimethylamino)-9H-xanthenylium-9-yl]phosphinate]",–,–,590 nm,59543 M⁻¹ cm⁻¹ and 59400 M⁻¹ cm⁻¹,–,627 nm,0.33,37^b nm,–,–,–
"CN(C)c1ccc2c(P(=O)([O-])CCC(=O)O)c3ccc(=[N+](C)C)cc-3oc2c1 [Compound 15, [3,6-Bis(dimethylamino)-9H-xanthenyhum-9-yl](2-carboxyethyl)phosphinate]",–,–,598 nm,52094 M⁻¹ cm⁻¹ and 52100 M⁻¹ cm⁻¹,–,636 nm,0.29,38^b nm,–,–,–
"C=CCOC(=O)CCCOP(=O)(OC)[c+]1c2ccc(N(C)C)cc2oc2cc(N(C)C)ccc21 (centres unmarked) [Compound 12, 9-[[4-(Allyloxy)-4-oxobutoxy](methoxy)phosphoryl]-3,6-bis(dimethylamino)-9H-xanthen-9-ylium chloride]",621 nm,42690 M⁻¹ cm⁻¹ and 42700 M⁻¹ cm⁻¹,632 nm,29540 M⁻¹ cm⁻¹,32 nm,669 nm,0.17,37 nm,653 nm,0.32,–
"CN(C)c1ccc2c(P(=O)(c3ccccc3)c3ccccc3)c3ccc(N(C)C)cc3[o+]c2c1.O=C([O-])C(F)(F)F [Compound 8, 3,6-Bis(dimethylamino)-9-(diphenylphosphoryl)-9H-xanthenylium trifluoroacetate]",574 nm,–,601 nm,–,26 nm,639 nm,0.26,38 nm,600 nm,0.35,–
"CC1=CC(C)=[N+]2C1=C(P(=O)(OC(C)C)OC(C)C)c1c(C)cc(C)n1[B-]2(F)F [Compound 29, 10-(Diisopropoxyphosphoryl)-5,5-difluoro-1,3,7,9-tetramethyl-5H-dipyrrolo[1,2-c:2′,1′-f][1,3,2]diazaborinin-4-ium-5-uide]",574 nm,33000 M⁻¹ cm⁻¹,–,–,73^a nm,–,–,–,647 nm,< 0.002,fluorescence emission (in words) [2]: no emission (quencher)
"COP(=O)(OC)c1c2ccc(=[N+](C)C)cc-2oc2cc(N(C)C)ccc12.O=C([O-])C(F)(F)F [Compound 5, 9-(Dimethoxyphosphoryl)-3,6-bis(dimethylamino)-9H-xanthenylium trifluoroacetate]",–,–,–,21400 M⁻¹ cm⁻¹,–,667 nm,0.16,–,–,–,–
"CCOP(=O)(C1=c2cc3c4c(c2Oc2c1cc1c5c2CCCN5CCC1)CCC[N+]=4CCC3)N(C)CCC(=O)O (centres unmarked) [Compound 19, 9-[[(2-Carboxyethyl)(methyl)amino](ethoxy)phosphoryl]-1H,2H,3H,5H,6H,7H,11H,12H,13H,15H,16H,17H-pyrido[3,2,1-ij]quinolizino[1′,9′:6,7,8]chromeno[2,3-f]quinolinium trifluoroacetate]",648 nm,29373 M⁻¹ cm⁻¹,659 nm,37214 M⁻¹ cm⁻¹,34 nm,705 nm,0.11,46 nm,682 nm,0.19,–
"CCOP(=O)(CC(=O)[O-])c1c2ccc(N(C)C)cc2[o+]c2cc(N(C)C)ccc12 (centres unmarked) [Compound 14, 2-[[3,6-Bis(dimethylamino)-9H-xanthenylium-9-yl](ethoxy)phosphoryl]acetate]",625 nm,22599 M⁻¹ cm⁻¹,631 nm,47622 M⁻¹ cm⁻¹,31 nm,667 nm,0.22,36 nm,656 nm,0.32,–
"COP(=O)(C1=c2cc3c4c(c2Oc2c1cc1c5c2CCCN5CCC1)CCC[N+]=4CCC3)N(C(C)C)C(C)C (centres unmarked) [Compound 17, 9-[(Diisopropylamino)(methoxy)phosphoryl]-1H,2H,3H5H,6H,7H,11H,12H,13H,15H,16H,17H-pyrido[3,2,1-ij]quinolizino[1′,9′:6,7,8]chromeno[2,3-f]quinolinium trifluoroacetate]",649 nm,–,661 nm,–,30 nm,696 nm,0.11,35 nm,679 nm,0.25,"ε at absorption max. [1, 3]: 52455 M⁻¹ cm⁻¹ and 53000 M⁻¹ cm⁻¹; ε at absorption max. [1, 4]: 46976 M⁻¹ cm⁻¹ and 47000 M⁻¹ cm⁻¹"
